Measurements reported in ChEMBL document CHEMBL2086231, “Novel pleuromutilin derivatives as antibacterial agents: synthesis, biological evaluation and molecular docking studies” (2012).
Values after ≈ are worked out from the molar mass of the structure shown.

Key:
Format in all cases: functional
Staphylococcus aureus [1] = experiment: Antibacterial activity against methicillin-sensitive Staphylococcus aureus isolate cpu1344 after 18 to 20 hrs by agar dilution method
Staphylococcus aureus [2] = experiment: Antibacterial activity against methicillin-resistant Staphylococcus aureus isolate cpu0446 after 18 to 20 hrs by agar dilution method
[3] = system: Staphylococcus epidermidis; experiment: Antibacterial activity against methicillin-resistant Staphylococcus epidermidis isolate cpu2736 after 18 to 20 hrs by agar dilution method
Staphylococcus aureus [4] = experiment: Antibacterial activity against methicillin-resistant Staphylococcus aureus isolate cpu3256 after 18 to 20 hrs by agar dilution method
Staphylococcus aureus [5] = experiment: Antibacterial activity against methicillin-sensitive Staphylococcus aureus isolate cpu1044 after 18 to 20 hrs by agar dilution method
[6] = system: Staphylococcus epidermidis; experiment: Antibacterial activity against methicillin-resistant Staphylococcus epidermidis isolate cpu3569 after 18 to 20 hrs by agar dilution method
[7] = system: Staphylococcus epidermidis; experiment: Antibacterial activity against methicillin-sensitive Staphylococcus epidermidis isolate cpu0347 after 18 to 20 hrs by agar dilution method
Staphylococcus aureus [8] = experiment: Antibacterial activity against methicillin-sensitive Staphylococcus aureus isolate cpu0587 after 18 to 20 hrs by agar dilution method
[9] = system: Staphylococcus epidermidis; experiment: Antibacterial activity against methicillin-resistant Staphylococcus epidermidis isolate cpu2623 after 18 to 20 hrs by agar dilution method
[10] = system: Staphylococcus epidermidis; experiment: Antibacterial activity against methicillin-sensitive Staphylococcus epidermidis isolate cpu2089 after 18 to 20 hrs by agar dilution method
Staphylococcus aureus [11] = experiment: Antibacterial activity against methicillin-resistant Staphylococcus aureus isolate cpu1098 after 18 to 20 hrs by agar dilution method
[12] = system: Staphylococcus epidermidis; experiment: Antibacterial activity against methicillin-sensitive Staphylococcus epidermidis isolate cpu1561 after 18 to 20 hrs by agar dilution method
[13] = system: Staphylococcus epidermidis; experiment: Antibacterial activity against methicillin-sensitive Staphylococcus epidermidis isolate cpu0315 after 18 to 20 hrs by agar dilution method
Staphylococcus aureus [14] = experiment: Antibacterial activity against methicillin-resistant Staphylococcus aureus isolate cpu0887 after 18 to 20 hrs by agar dilution method
[15] = system: Staphylococcus epidermidis; experiment: Antibacterial activity against methicillin-resistant Staphylococcus epidermidis isolate cpu3889 after 18 to 20 hrs by agar dilution method
Staphylococcus aureus [16] = experiment: Antibacterial activity against methicillin-sensitive Staphylococcus aureus isolate cpu0211 after 18 to 20 hrs by agar dilution method
Mycoplasma = experiment: Antimicrobial activity against Mycoplasma by serial two fold dilution assay
Brachyspira pilosicoli = experiment: Antibacterial activity against Brachyspira pilosicoli

SMILES | MIC (Staphylococcus aureus [1]) [µg/mL] | MIC (Staphylococcus aureus [2]) [µg/mL] | MIC [3] [µg/mL] | MIC (Staphylococcus aureus [4]) [µg/mL] | MIC (Staphylococcus aureus [5]) [µg/mL] | MIC [6] [µg/mL] | MIC [7] [µg/mL] | MIC (Staphylococcus aureus [8]) [µg/mL] | MIC [9] [µg/mL] | MIC [10] [µg/mL] | MIC (Staphylococcus aureus [11]) [µg/mL] | MIC [12] [µg/mL] | MIC [13] [µg/mL] | MIC (Staphylococcus aureus [14]) [µg/mL] | MIC [15] [µg/mL] | MIC (Staphylococcus aureus [16]) [µg/mL] | MIC (Mycoplasma) [µg/mL] | MIC (Brachyspira pilosicoli) [µg/mL]
CC1(C)S[C@@H]2[C@H](NC(=O)[C@H](N)c3ccc(O)cc3)C(=O)N2[C@H]1C(=O)O [AMOXICILLIN] | 1 (≈ 2.74 µM) | 4 (≈ 10.9 µM) | 0.125 (≈ 0.342 µM) | 8 (≈ 21.9 µM) | 1 (≈ 2.74 µM) | 8 (≈ 21.9 µM) | 8 (≈ 21.9 µM) | 2 (≈ 5.47 µM) | 8 (≈ 21.9 µM) | 0.125 (≈ 0.342 µM) | 4 (≈ 10.9 µM) | 0.125 (≈ 0.342 µM) | 0.125 (≈ 0.342 µM) | 0.125 (≈ 0.342 µM) | 8 (≈ 21.9 µM) | 4 (≈ 10.9 µM) |  | 
C=C[C@]1(C)C[C@@H](OC(=O)CSCc2csc(NC(=O)CN(CCCC)CCCC)n2)[C@]2(C)[C@H](C)CC[C@]3(CCC(=O)[C@H]32)[C@@H](C)[C@@H]1O | 16 (≈ 23.7 µM) | 8 (≈ 11.8 µM) | 16 (≈ 23.7 µM) | 8 (≈ 11.8 µM) | 4 (≈ 5.92 µM) | 8 (≈ 11.8 µM) | 8 (≈ 11.8 µM) | 4 (≈ 5.92 µM) | 4 (≈ 5.92 µM) | 4 (≈ 5.92 µM) | 8 (≈ 11.8 µM) | 16 (≈ 23.7 µM) | 8 (≈ 11.8 µM) | 32 (≈ 47.3 µM) | 16 (≈ 23.7 µM) | 4 (≈ 5.92 µM) |  | 
C=C[C@]1(C)C[C@@H](OC(=O)CSCc2csc(NC(=O)CNCC(=O)OC)n2)[C@]2(C)[C@H](C)CC[C@]3(CCC(=O)[C@H]32)[C@@H](C)[C@@H]1O | 0.5 (≈ 0.786 µM) | 1 (≈ 1.57 µM) | 0.5 (≈ 0.786 µM) | 0.5 (≈ 0.786 µM) | 0.5 (≈ 0.786 µM) | 0.5 (≈ 0.786 µM) | 0.5 (≈ 0.786 µM) | 0.25 (≈ 0.393 µM) | 0.5 (≈ 0.786 µM) | 0.25 (≈ 0.393 µM) | 0.5 (≈ 0.786 µM) | 1 (≈ 1.57 µM) | 4 (≈ 6.29 µM) | 1 (≈ 1.57 µM) | 1 (≈ 1.57 µM) | 0.25 (≈ 0.393 µM) |  | 
C=C[C@]1(C)C[C@@H](OC(=O)CSCCN(CC)CC)[C@]2(C)[C@H](C)CC[C@]3(CCC(=O)[C@H]32)[C@@H](C)[C@@H]1O [TIAMULIN] | 2 (≈ 4.05 µM) | 2 (≈ 4.05 µM) | 0.0625 (≈ 0.127 µM) | 2 (≈ 4.05 µM) | 8 (≈ 16.2 µM) | 0.25 (≈ 0.506 µM) | 0.5 (≈ 1.01 µM) | 8 (≈ 16.2 µM) | 1 (≈ 2.03 µM) | 0.5 (≈ 1.01 µM) | 2 (≈ 4.05 µM) | 0.0625 (≈ 0.127 µM) | 0.0625 (≈ 0.127 µM) | 0.5 (≈ 1.01 µM) | 1 (≈ 2.03 µM) | 2 (≈ 4.05 µM) | < 1 | 
C=C[C@]1(C)C[C@@H](OC(=O)CSC(C)(C)CNC(=O)[C@H](N)C(C)C)[C@]2(C)[C@H](C)CC[C@]3(CCC(=O)[C@H]32)[C@@H](C)[C@@H]1O [VALNEMULIN] |  |  |  |  |  |  |  |  |  |  |  |  |  |  |  |  |  | 0.03 (≈ 0.0531 µM)
C=C[C@]1(C)C[C@@H](OC(=O)CSCc2csc(NC(=O)CN(CC)CC)n2)[C@]2(C)[C@H](C)CC[C@]3(CCC(=O)[C@H]32)[C@@H](C)[C@@H]1O | 0.25 (≈ 0.403 µM) | 0.5 (≈ 0.807 µM) | 0.25 (≈ 0.403 µM) | 2 (≈ 3.23 µM) | 1 (≈ 1.61 µM) | 0.25 (≈ 0.403 µM) | 0.25 (≈ 0.403 µM) | 8 (≈ 12.9 µM) | 0.25 (≈ 0.403 µM) | 0.25 (≈ 0.403 µM) | 0.5 (≈ 0.807 µM) | 0.25 (≈ 0.403 µM) | 0.25 (≈ 0.403 µM) | 0.25 (≈ 0.403 µM) | 2 (≈ 3.23 µM) | 1 (≈ 1.61 µM) |  | 
